As usually defined, the melting point is the temperature, or range, at which the solid turns liquid.

As to `CCOC(=O)c1c2ccc(CC(=O)NOCCO)ccc-2c(C(=O)OCC)c1N`, the melting point lay within 190 to 192 °C. For the compound `COC(C)(CC(=O)NC1CCCCC1)OC`, the melting point turned out to be 66 °C. With `CC1(C)NC(=O)c2cc(OCCBr)ccc2O1` the figure was 190 to 195 °C; with `CCCc1cn(-c2cc(=O)n(-c3ccccc3)nc2C#N)nn1`, 192 to 195 °C; with `COc1ccc(N2C(=O)C3=C(CCCC3)C2CC(=O)O)cc1` (stereo not given), 203 to 204 °C. To `CC1CN(c2n[nH]c(-c3ccc(Cl)cc3)c2-c2ccncc2)CC(C)N1` (stereo not given) belongs 236 to 238 °C.

`Cc1ncoc1C(O)c1ccco1` (stereo not given) registered a melting point of 52 to 54 °C. The compound `CCCn1c(=O)c2[nH]c(C3CCCC3)nc2n(CCc2ccc(N)cc2)c1=O` gave a melting point of 248 to 250 °C.

Take `CC(=O)NCCn1ccc2c1-c1cc(Cl)ccc1CC2`: the melting point lay in the range of 144 to 146 °C. Compound `O=C(O)C1(c2ccc(Nc3nc(N4CCCC4)nc4c3CCC4)cc2)CCC1` came in with a melting point of 245 to 247 °C. To `CCCCN(C(=O)c1cc(C(C)(C)C)c(OC(=O)c2cc(C(C)(C)C)c(O)c(C(C)(C)C)c2)c(C(C)(C)C)c1)C1CC(C)(C)N(OC(C)=O)C(C)(C)C1` belongs 230 to 232 °C; to `CCOc1nn(Cc2ccc(OCc3cccc(-c4ccccc4)n3)cc2)cc1CCC(=O)O`, 95 to 96 °C; to `CC(C)(C)OC(=O)N1CCC(CBr)CC1`, 48 to 50 °C. On to `CC(=O)NCC1CN(c2ccc3c(c2)CC(CO)N3C=O)C(=O)O1` (stereo not given), for which the melting point fell in the range of 132 to 136 °C. To `CCOC(=O)COc1ccc(N(C)Cc2ccc(-c3ccc(C(F)(F)F)cc3)nc2C)cc1CCCOC` belongs 72 to 73 °C; to `CC12C=CC(=O)CC1CCC1C2CCC2(C)C(C(=O)NC3(C#N)CCCC3)CCC12` (stereo not given), 262 to 269 °C; to `Cc1nc(N2CCCC(Cc3ccc(F)cc3)C2=O)sc1C(=O)NCc1cccc(F)c1` (stereo not given), 173 to 175 °C.

Consider `CCCCNC(=O)[C@@H](C[C@H](O)[C@@H](N)CC1CCCC1)C(C)C`, for which the melting point was in the range of 93 to 94 °C.

In turn, `FC(F)(c1ccccc1)C(F)(F)c1cccc(Br)c1` returned a melting point of 72 to 75 °C. With `CC(=O)Nc1ncc(C#Cc2cnn3c(C(F)(F)F)cc(-c4ccc(C(F)(F)F)cc4)nc23)cn1`, the melting point stood at 293 °C.

For `CCCN1C(=O)C2(CC(C)C)CC(c3ccc(N)cc3)(C2)C1=O`, the melting point fell in the range of 86.5 to 87 °C. To `CC(=O)C(=Cc1cccc([N+](=O)[O-])c1)C(=O)OCCCl` belongs 95 to 97 °C; to `CCn1nc(C)c2c(Cl)c(CCl)cnc21`, 96 to 97 °C; to `O=C(CCCCl)N(c1ccccc1)c1ccccc1`, 78 to 79 °C. `CN1C(=O)C(c2cc[nH]c2)(c2cccc(OCc3ccccc3)c2)N=C1N` (stereo not given) came in with a melting point of 98 to 100 °C.

The compound `O=C(O)COc1ccc2c(=O)c3cc(Cl)ccc3oc2c1Cl` displayed a melting point of 262 to 263 °C. With `N#CCOc1ccc2cc(-c3cnc(-c4cn(Cc5ccccc5)c5ccccc45)o3)ccc2c1` the figure was 205 to 208 °C; with `CCC1CCc2cc(CC(=O)O)ccc2O1` (stereo not given), 88 to 90 °C. With `CCn1nc(N)nc1NCCCOc1cccc(CN(C)C)c1` the figure was 104 to 105 °C; with `COc1cc(CC(=O)Nc2nn(-c3ccccc3)cc2C=O)ccc1OCc1nc(-c2ccccc2)oc1C`, 156 to 158 °C. With `CN1CCC(C2(O)c3ccc(Cl)cc3Sc3ccc(F)cc32)CC1` (stereo not given) the figure was 133 to 142 °C; with `O=C(c1ccc(Cl)cc1)c1ccc2[nH]c(=O)cc(C(=O)O)c2c1`, above 260 °C; with `Cc1ccc(S(=O)(=O)N2CCCC2c2cccc(F)c2)cc1` (racemic), 116 °C. On to `O=C1Nc2c(C(F)(F)F)cccc2C1(O)c1cc(Cl)ccc1O` (stereo not given), for which the melting point was 205 to 207 °C. Turning to `CC1(C)OCC2Cc3cc4c(cc3C(c3ccc([N+](=O)[O-])cc3)=NN21)OCO4` (stereo not given), the melting point was 171 to 173 °C. To `CCC(=O)N1CCC(NC(=O)Nc2ccc(C(=O)OC)cc2)CC1` belongs 201 to 204 °C; to `Cc1ccccc1Oc1cccc(NC(=O)c2ccn3c2CSC3c2cccnc2)c1` (stereo not given), 180 °C. To `CC[C@H](C)COc1ccc(-n2cc(C(=O)O)cn2)cc1C#N` belongs 184 to 186 °C; to `CC1(C)OC(=S)Nc2ccc(-c3sccc3C#N)cc21`, 194 to 195 °C; to `COCCNc1ccc2c(c1)OC(c1ccccc1)C(c1ccc3c(c1)NC(=O)CO3)=C2` (stereo not given), 185 to 192 °C. With `NC(=O)c1ccc(CCCNCC(O)c2ccccc2)cc1` (stereo not given) the figure was 106 to 108 °C; with `C=CCOc1ccc(C2C(=O)Oc3c2cc(C(C)(C)C)cc3C(C)(C)C)cc1` (stereo not given), 112 to 114 °C; with `COc1ccc(Cn2c(=O)cc(-c3nccn3C)c3cnc(SC)nc32)cc1Cl`, 218 to 220 °C.

As to `c1cc(-c2cn3c(n2)CCC3)ccn1`, the melting point lay within 140 to 141 °C. The compound `S=c1n(N=Cc2ccccc2)ccn1N=Cc1ccccc1` yielded a melting point of 215 to 218 °C. With `Cc1ccccc1Cn1c(=O)on(C(=O)N(c2ccc(Cl)cc2)C(C)C)c1=O` the figure was 90 to 91 °C; with `CCCCNC(=O)Nc1ncc2cc(-c3c(Cl)cccc3Cl)c(NC(=O)NCCCC)nc2n1`, 200 to 202 °C.

For the compound `ON=C1C[C@H]2CC=CC[C@H]2C1`, the melting point is 100 to 103 °C. `O=C1NNC(C=Cc2ccc([N+](=O)[O-])cc2)CS1` (stereo not given): the melting point lay within 231 to 240 °C. With `Cc1oc(-c2ccccc2)nc1COc1ccc(OCc2oc(-c3ccccc3)nc2/C=C/C(=O)O)cc1` the figure was 209 to 210 °C; with `CN1Cc2c(C#CC(C)(C)O)ncn2-c2ccc(F)cc2C1=O`, 163 to 164 °C; with `Clc1cc(CCc2ccccn2)c2oc(-c3ccc4[nH]nnc4c3)nc2c1`, 242 to 244 °C. To `COc1ccc(-c2cc3c(s2)c(=O)c(SC)cn3C)cc1` belongs 182 to 184 °C; to `O=C(O)c1cc(C(F)(F)F)cc(Cl)c1-n1cnc(C(F)(F)F)cc1=O`, 225 °C; to `COc1c(S(=O)(=O)N2CCC[C@H]2C(=O)O)ccc(Cl)c1COc1cccc2c(C)cc(C)nc12`, 134 to 138 °C. Take `CC1(C)SCNC1C(=O)O` (stereo not given): the melting point lay in the range of 209 to 210 °C. With `FC(F)(F)c1ccc(CCl)cc1` the figure was 224 to 228 °C; with `Cc1cc(C2CC2)nc(NC(=O)NS(=O)(=O)c2cccc3c2OS(=O)(=O)C(C)C3)n1` (stereo not given), 216 to 217 °C; with `O=C(Nc1cnccn1)C(Cl)(Cl)Cl`, 68 °C.

On to `CC12CC=C3C4=C(CCC3C1CCC2=O)CC1(CC4)OCCO1` (stereo not given), for which the melting point was 110 to 112 °C. With `COc1ccc2[nH]ncc2c1Br` the figure was 178 to 180 °C; with `Cn1c(-c2ccccn2)cc(O)c(C(=N)c2ccccc2)c1=O`, 242 to 245 °C. To `Cc1noc(NS(=O)(=O)c2cccc3c(N(C)C)cccc23)c1Br` belongs 87 to 89 °C; to `COc1ccc(-n2c(-c3ccccc3)cc3c2CCCC3)cc1`, 132 to 133 °C; to `Nc1ccc(SCc2csc(NC=O)n2)cc1`, 180 to 182 °C. With `CCCC(CC(=O)NC(=O)OC(C)(C)C)Nc1ccc(Cl)cc1` (stereo not given) the figure was 76 to 77 °C; with `O=C(O)c1ccc(CNS(=O)(=O)c2ccc(Br)cc2)cc1`, 268 to 271 °C; with `Nc1ncc(-c2ccc3ncc(-c4ccc(CO)cc4)n3n2)cc1C(F)(F)F`, 290 to 292 °C. As for `COc1cccc(NC(NC(C)C(C)(C)C)=C(C#N)S(=O)(=O)C(C)C)c1` (stereo not given), the melting point is 59 to 62 °C.

`CC(=O)Nc1cccc(NC(=O)Cc2ccc(-n3c(-c4cccnc4N)nc4ccc(-c5cccnc5)nc43)cc2)c1`: the melting point was 142 to 144 °C. To `COC(C)(C)C#Cc1ncn2c1CN(C)C(=O)c1ccccc1-2` belongs 136 to 137 °C; to `N=C(NCC1(c2ccc(Cl)cc2)CC1)NN=Cc1c(Cl)cccc1Cl`, 126 to 128 °C; to `O=C(O)Cc1ccn(-c2ccc(F)cc2)c1`, 100 to 102 °C. Turning to `Cc1cccc2ncn(-c3nnn[nH]3)c(=O)c12`, the melting point fell in the range of 280 to 281 °C. Take `COc1c(Cl)ccc(-c2cc(N)c(Cl)c(C(=O)NOC(C)C)n2)c1F`: the melting point is 190 to 193 °C.

For `CCOC(=O)Cc1ccc(OCc2ccccc2)c2c1OCCO2`, the melting point was 86 °C.

With `OC1(c2ccc(Cl)c(Cl)c2)c2ccccc2C2=NCCCN21` (stereo not given), the melting point is 267 to 269 °C.

Regarding `O=C(NCCCc1ccncc1)N(CCCc1ccccc1)C(c1ccccc1)c1ccccc1`, the melting point lay within 123 to 125 °C. To `COc1cc([N+](=O)[O-])c(N)cc1C(=O)Oc1ccccc1` belongs 130 to 132 °C. `CC(=O)OCNC(=O)c1cc(Cl)nc(Cl)c1`: the melting point is 94 to 95 °C.

The compound `NCCCCCNc1cccc2c1C(=O)c1c(NCCCCCN)cccc1C2=O` yielded a melting point of 115 to 116 °C.

The compound `Cn1c2c(c3ccccc3c1=O)C(=O)c1cc(OCc3ccccc3)c(OCc3ccccc3)cc1-2` registered a melting point of 198 to 200 °C. To `Cc1cc(C#N)cc(C(N)=O)c1NC(=O)c1cc(Br)nn1-c1ncccc1Cl` belongs above 255 °C; to `O=C(O)c1cc(C(F)(F)F)cc([N+](=O)[O-])c1O`, 166 to 168 °C. With `CCCCOc1cc(/C=C(\OCC)C(=O)O)ccc1OCCc1ccc(NC(C)=O)cc1`, the melting point was determined as 160 °C. With `CC(C(=O)O)c1ccc(-c2cn3ccccc3n2)cc1` (stereo not given) the figure was 244 to 246 °C. Consider `CCOC1=CC(=O)N([C@@H]2c3cc(C#N)ccc3OC(C)(C)[C@H]2O)C1`, for which the melting point stood at 210 °C. With `CC(Oc1ncn(-c2ccc(Br)cc2)n1)C(=O)O` (stereo not given) the figure was 195 to 197 °C; with `COc1cc(C(=O)CBr)ccc1OCC(F)(F)F`, 120 °C; with `CNN(NC)C(=O)Sc1cccnc1C(=O)OC`, 56 to 58 °C.

These data come from a melting point compilation (Tetko et al.; mined from patent text by program, amines drawn as free bases though some values may be those of a salt).
